{"source": "patent US12577245B2", "about": "“Sulfonyl benzamide derivatives as Bcl-2 inhibitors” (ASCENTAGE PHARMA (SUZHOU) CO., LTD., priority 2021, dated 2026)", "data": [{"target": "Bcl-2 G101V (Homo sapiens, UniProt P10415, G101V)", "assay": "Bcl-2 G101V inhibition, fluorescence polarization (Flu-BIM tracer) binding assay", "conditions": "FP; 20 nM Bcl2, 5 nM Flu-BIM, 1 h incubation; read-out: Bcl-2 G101V (FP)", "units": {"IC50": "nM"}, "values": [{"smiles": "CC1(C)CCC(CN2CCN(c3ccc(C(=O)NS(=O)(=O)c4ccc(NC[C@H]5CC[C@](C)(O)CC5)c([N+](=O)[O-])c4)c(Oc4cnc5[nH]ccc5c4)c3)CC2)=C(c2cc(-c3c(F)cc(C(C)(C)O)cc3F)cs2)C1", "note": "[Example 63, 2-((1H-pyrrolo[2,3-b]pyridin-5-yl)oxy)-4-(4-((2-(4-(2,6-difluoro-4-(2-hydroxypropan-2-yl)phenyl)thiophen-2-yl)-4,4-dimethylcyclohex-1-en-1-yl)methyl)piperazin-1-yl)-N-((4-((((1r,4r)-4-hydroxy-4-methylcyclohexyl)methyl)amino)-3-nitrophenyl)sulfonyl)benzamide]", "IC50": 32.3}, {"smiles": "CC1(C)CCC(CN2CCN(c3ccc(C(=O)NS(=O)(=O)c4ccc(NC[C@H]5COCCO5)c([N+](=O)[O-])c4)c(Oc4cnc5[nH]ccc5c4)c3)CC2)=C(c2cc3c(s2)CCN(c2ccc(F)cc2)C3)C1", "note": "[Example 15, (S)—N-((4-(((1,4-dioxan-2-yl)methyl)amino)-3-nitrophenyl)sulfonyl)-2-((1H-pyrrolo[2,3-b]pyridin-5-yl)oxy)-4-(4-((2-(5-(4-fluorophenyl)-4,5,6,7-tetrahydrothieno[3,2-c]pyridin-2-yl)-4,4-dimethylcyclohex-1-en-1-yl)methyl)piperazin-1-yl)benzamide]", "IC50": 65.1}, {"smiles": "Cc1cscc1C1=C(CN2CCN(c3ccc(C(=O)NS(=O)(=O)c4ccc(NCC5CCOCC5)c([N+](=O)[O-])c4)c(Oc4cnc5[nH]ccc5c4)c3)CC2)CCC(C)(C)C1", "note": "[Example 2, 2-((1H-pyrrolo[2,3-b]pyridin-5-yl)oxy)-4-(4-((4,4-dimethyl-2-(4-methylthiophen-3-yl)cyclohex-1-en-1-yl)methyl)piperazin-1-yl)-N-((3-nitro-4-(((tetrahydro-2H-pyran-4-yl)methyl)amino)phenyl)sulfonyl)benzamide]", "IC50": 32.6}, {"smiles": "CC1(C)CCC(CN2CCN(c3ccc(C(=O)NS(=O)(=O)c4ccc(NC[C@H]5COCCO5)c([N+](=O)[O-])c4)c(Oc4cnc5[nH]ccc5c4)c3)CC2)=C(c2cc(-c3ccc(Cl)cc3F)cs2)C1", "note": "[Example 44, (S)—N-((4-(((1,4-dioxan-2-yl)methyl)amino)-3-nitrophenyl)sulfonyl)-2-((1H-pyrrolo[2,3-b]pyridin-5-yl)oxy)-4-(4-((2-(4-(4-chloro-2-fluorophenyl)thiophen-2-yl)-4,4-dimethylcyclohex-1-en-1-yl)methyl)piperazin-1-yl)benzamide]", "IC50": 46.3}, {"smiles": "CC1(C)CCC(CN2CCN(c3ccc(C(=O)NS(=O)(=O)c4ccc(NCC5CCOCC5)c([N+](=O)[O-])c4)c(Oc4cnc5[nH]ccc5c4)c3)CC2)=C(c2cc(-c3ccccc3)cs2)C1", "note": "[Example 34, 2-((1H-pyrrolo[2,3-b]pyridin-5-yl)oxy)-4-(4-((4,4-dimethyl-2-(4-phenylthiophen-2-yl)cyclohex-1-en-1-yl)methyl)piperazin-1-yl)-N-((3-nitro-4-(((tetrahydro-2H-pyran-4-yl)methyl)amino)phenyl)sulfonyl)benzamide]", "IC50": 47.9}, {"smiles": "CC1(C)CCC(CN2CCN(c3ccc(C(=O)NS(=O)(=O)c4ccc(NC[C@H]5CC[C@](C)(O)CC5)c([N+](=O)[O-])c4)c(Oc4cnc5[nH]ccc5c4)c3)CC2)=C(c2cc(-c3ccc(C(C)(C)O)cc3)cs2)C1", "note": "[Example 59, 2-((1H-pyrrolo[2,3-b]pyridin-5-yl)oxy)-N-((4-((((1r,4r)-4-hydroxy-4-methylcyclohexyl)methyl)amino)-3-nitrophenyl)sulfonyl)-4-(4-((2-(4-(4-(2-hydroxypropan-2-yl)phenyl)thiophen-2-yl)-4,4-dimethylcyclohex-1-en-1-yl)methyl)piperazin-1-yl)benzamide]", "IC50": 38.5}, {"smiles": "CC1(C)CCC(CN2CCN(c3ccc(C(=O)NS(=O)(=O)c4ccc(NC[C@H]5CC[C@](C)(O)CC5)c([N+](=O)[O-])c4)c(Oc4cnc5[nH]ccc5c4)c3)CC2)=C(c2cc(-c3c(F)cc(C(C)(C)C(=O)O)cc3F)cs2)C1", "note": "[Example 82, 2-(4-(5-(2-((4-(3-((1H-pyrrolo[2,3-b]pyridin-5-yl)oxy)-4-(((4-((((1r,4r)-4-hydroxy-4-methylcyclohexyl)methyl)amino)-3-nitrophenyl)sulfonyl)carbamoyl)phenyl)piperazin-1-yl)methyl)-5,5-dimethylcyclohex-1-en-1-yl)thiophen-3-yl)-3,5-difluorophenyl)-2-methylpropanoic acid]", "IC50": 22.3}, {"smiles": "CC1(C)CCC(CN2CCN(c3ccc(C(=O)NS(=O)(=O)c4ccc(NC[C@H]5CC[C@](C)(O)CC5)c([N+](=O)[O-])c4)c(Oc4cnc5[nH]ccc5c4)c3)CC2)=C(c2cc(-c3ccc(C(C)(C)O)c(F)c3)cs2)C1", "note": "[Example 71, 2-((1H-pyrrolo[2,3-b]pyridin-5-yl)oxy)-4-(4-((2-(4-(3-fluoro-4-(2-hydroxypropan-2-yl)phenyl)thiophen-2-yl)-4,4-dimethylcyclohex-1-en-1-yl)methyl)piperazin-1-yl)-N-((4-((((1r,4r)-4-hydroxy-4-methylcyclohexyl)methyl)amino)-3-nitrophenyl)sulfonyl)benzamide]", "IC50": 20.3}, {"smiles": "CC1(C)CCC(CN2CCN(c3ccc(C(=O)NS(=O)(=O)c4ccc(NC[C@H]5CC[C@](C)(O)CC5)c([N+](=O)[O-])c4)c(Oc4cnc5[nH]ccc5c4)c3)CC2)=C(c2cc(-c3ccc(F)c(F)c3)cs2)C1", "note": "[Example 51, 2-((1H-pyrrolo[2,3-b]pyridin-5-yl)oxy)-4-(4-((2-(4-(3,4-difluorophenyl)thiophen-2-yl)-4,4-dimethylcyclohex-1-en-1-yl)methyl)piperazin-1-yl)-N-((4-((((1r,4r)-4-hydroxy-4-methylcyclohexyl)methyl)amino)-3-nitrophenyl)sulfonyl)benzamide]", "IC50": 45.5}, {"smiles": "CC1(C)CCC(CN2CCN(c3ccc(C(=O)NS(=O)(=O)c4ccc(NC[C@H]5CC[C@](C)(O)CC5)c([N+](=O)[O-])c4)c(Oc4cnc5[nH]ccc5c4)c3)CC2)=C(c2cc(-c3ccc4c(c3)CCC4(C)O)cs2)C1", "note": "(stereo partly shown) [Example 79, 2-((1H-pyrrolo[2,3-b]pyridin-5-yl)oxy)-4-(4-((2-(4-(1-hydroxy-1-methyl-2,3-dihydro-1H-inden-5-yl)thiophen-2-yl)-4,4-dimethylcyclohex-1-en-1-yl)methyl)piperazin-1-yl)-N-((4-((((1r,4r)-4-hydroxy-4-methylcyclohexyl)methyl)amino)-3-nitrophenyl)sulfonyl)benzamide]", "IC50": 22.1}, {"smiles": "CC1(C)CCC(CN2CCN(c3ccc(C(=O)NS(=O)(=O)c4ccc(NC[C@H]5COCCO5)c([N+](=O)[O-])c4)c(Oc4cnc5[nH]ccc5c4)c3)CC2)=C(c2cc(-c3ccc(C(F)(F)F)cc3)cs2)C1", "note": "[Example 40, (S)—N-((4-(((1,4-dioxan-2-yl)methyl)amino)-3-nitrophenyl)sulfonyl)-2-((1H-pyrrolo[2,3-b]pyridin-5-yl)oxy)-4-(4-((4,4-dimethyl-2-(4-(4-(trifluoromethyl)phenyl)thiophen-2-yl)cyclohex-1-en-1-yl)methyl)piperazin-1-yl)benzamide]", "IC50": 43.4}, {"smiles": "CC1(C)CCC(CN2CCN(c3ccc(C(=O)NS(=O)(=O)c4ccc(NC[C@H]5COCCO5)c([N+](=O)[O-])c4)c(Oc4cnc5[nH]ccc5c4)c3)CC2)=C(c2cc(-c3ccc(F)cc3F)cs2)C1", "note": "[Example 42, (S)—N-((4-(((1,4-dioxan-2-yl)methyl)amino)-3-nitrophenyl)sulfonyl)-2-((1H-pyrrolo[2,3-b]pyridin-5-yl)oxy)-4-(4-((2-(4-(2,4-difluorophenyl)thiophen-2-yl)-4,4-dimethylcyclohex-1-en-1-yl)methyl)piperazin-1-yl)benzamide]", "IC50": 50.7}, {"smiles": "CC1(C)CCC(CN2CCN(c3ccc(C(=O)NS(=O)(=O)c4ccc(NC[C@H]5CC[C@](C)(O)CC5)c([N+](=O)[O-])c4)c(Oc4cnc5[nH]ccc5c4)c3)CC2)=C(c2cc(-c3ccc(C(F)(F)F)cc3)cs2)C1", "note": "[Example 41, 2-((1H-pyrrolo[2,3-b]pyridin-5-yl)oxy)-4-(4-((4,4-dimethyl-2-(4-(4-(trifluoromethyl)phenyl)thiophen-2-yl)cyclohex-1-en-1-yl)methyl)piperazin-1-yl)-N-((4-((((1r,4r)-4-hydroxy-4-methylcyclohexyl)methyl)amino)-3-nitrophenyl)sulfonyl)benzamide]", "IC50": 34.4}, {"smiles": "CC1(C)CCC(CN2CCN(c3ccc(C(=O)NS(=O)(=O)c4ccc(NC[C@H]5COCCO5)c([N+](=O)[O-])c4)c(Oc4cnc5[nH]ccc5c4)c3)CC2)=C(c2cc(CN3CCC(F)(F)CC3)cs2)C1", "note": "[Example 32, (S)—N-((4-(((1,4-dioxan-2-yl)methyl)amino)-3-nitrophenyl)sulfonyl)-2-((1H-pyrrolo[2,3-b]pyridin-5-yl)oxy)-4-(4-((2-(4-((4,4-difluoropiperidin-1-yl)methyl)thiophen-2-yl)-4,4-dimethylcyclohex-1-en-1-yl)methyl)piperazin-1-yl)benzamide]", "IC50": 25.7}, {"smiles": "CC1(C)CCC(CN2CCN(c3ccc(C(=O)NS(=O)(=O)c4ccc(NCC5CCOCC5)c([N+](=O)[O-])c4)c(Oc4cnc5[nH]ccc5c4)c3)CC2)=C(c2ccsc2CN2CCOCC2)C1", "note": "[Example 25, 2-((1H-pyrrolo[2,3-b]pyridin-5-yl)oxy)-4-(4-((4,4-dimethyl-2-(2-(morpholinomethyl)thiophen-3-yl)cyclohex-1-en-1-yl)methyl)piperazin-1-yl)-N-((3-nitro-4-(((tetrahydro-2H-pyran-4-yl)methyl)amino)phenyl)sulfonyl)benzamide]", "IC50": 39.1}, {"smiles": "CC1(C)CCC(CN2CCN(c3ccc(C(=O)NS(=O)(=O)c4ccc(NC[C@H]5COCCO5)c([N+](=O)[O-])c4)c(Oc4cnc5[nH]ccc5c4)c3)CC2)=C(c2cc(Nc3ncccn3)cs2)C1", "note": "[Example 19, (S)—N-((4-(((1,4-dioxan-2-yl)methyl)amino)-3-nitrophenyl)sulfonyl)-2-((1H-pyrrolo[2,3-b]pyridin-5-yl)oxy)-4-(4-((4,4-dimethyl-2-(4-(pyrimidin-2-ylamino)thiophen-2-yl)cyclohex-1-en-1-yl)methyl)piperazin-1-yl)benzamide]", "IC50": 40.9}]}]}
